The results in this text go back to BindingDB's records for PubMed 34705450 (Astex Pharmaceuticals, 2021).

The target in one experiment is T1, Nuclear factor erythroid 2-related factor 2 (Homo sapiens, UniProt Q16236).
T1 sequence (Q16236 whole entry): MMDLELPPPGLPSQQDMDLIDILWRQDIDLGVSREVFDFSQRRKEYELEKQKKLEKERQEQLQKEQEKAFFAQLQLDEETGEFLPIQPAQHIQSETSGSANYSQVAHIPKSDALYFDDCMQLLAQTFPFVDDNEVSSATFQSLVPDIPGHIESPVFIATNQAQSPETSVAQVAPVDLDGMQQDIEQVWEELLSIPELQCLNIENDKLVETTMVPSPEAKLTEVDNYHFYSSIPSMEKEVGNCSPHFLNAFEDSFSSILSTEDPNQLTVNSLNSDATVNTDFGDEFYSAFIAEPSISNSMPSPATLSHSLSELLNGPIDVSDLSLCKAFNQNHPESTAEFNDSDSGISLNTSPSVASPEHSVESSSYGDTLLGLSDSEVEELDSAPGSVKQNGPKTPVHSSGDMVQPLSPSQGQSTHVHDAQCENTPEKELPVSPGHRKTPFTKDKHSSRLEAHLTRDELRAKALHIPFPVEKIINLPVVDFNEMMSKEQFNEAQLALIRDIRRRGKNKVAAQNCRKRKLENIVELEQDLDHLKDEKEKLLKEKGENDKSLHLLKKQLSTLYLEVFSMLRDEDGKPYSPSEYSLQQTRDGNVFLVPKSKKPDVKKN
The experiment is described as follows: Induction of Nrf2 in human BEAS-2B cells assessed as increase in NQO1 protein level incubated for 48 hrs by MTT assay.
For the compound `CCC[C@@H]1CCCCN1C(=O)c1cccc(-c2cccc(-n3ncc(C(=O)O)c3[C@H]3C[C@@H]3c3cn(C)nn3)c2)c1`, the EC50 came to 43 nM.

As to `CCCC1CCCCN1C(=O)c1cccc(-c2cccc(-n3ncc(C(=O)O)c3C3CC3c3cccnc3)c2)c1` (stereo unspecified), the EC50 was 3200 nM.

For `CCC[C@H]1CCCCN1C(=O)c1cccc(-c2cccc(-n3ncc(C(=O)O)c3C3CC3)c2)c1F`, the EC50 was determined as 3500 nM.

As for `CCCC1CCCCN1C(=O)C1CCCC(c2cccc(-n3ncc(C(=O)O)c3C3CC3)c2)C1` (stereo unspecified), the half-maximal effective concentration (EC50) is 4100 nM.

As for `CN(C)C(=O)c1cccc(-c2cccc(-n3ncc(C(=O)O)c3C3CC3)c2)c1`, the concentration for a half-maximal effect (EC50) worked out at 1400 nM.

In the case of `CN(CC1CC1)C(=O)c1cccc(-c2cccc(-n3ncc(C(=O)O)c3C3CC3)c2)c1F`, the EC50 turned out to be 2200 nM.

`CN(C)C(=O)c1cccc(-c2cccc(-n3ncc(C(=O)O)c3C3CC3)c2)c1F`: the EC50 is 1300 nM.

As to `CCC[C@@H]1CCCCN1C(=O)c1cccc(-c2cccc(-n3ncc(C(=O)O)c3C3CC3)c2)c1F`, the EC50 turned out to be 3500 nM.

Turning to `CCCCC1CCCN1C(=O)C1CCCC(c2cccc(-n3ncc(C(=O)O)c3C3CC3)c2)C1` (stereo unspecified), the EC50 came out at 4400 nM.

`O=C(O)c1cnn(-c2cccc(-c3cccc(C(=O)N(CC4CC4)CC4CC4)c3F)c2)c1C1CC1`: the 50% effective concentration (EC50) is 3500 nM.

As to `CCCC1CCCCN1C(=O)c1cccc(-c2cccc(-n3ncc(C(=O)O)c3C3CC3c3cn(C)nn3)c2)c1` (stereo unspecified), the EC50 was 120 nM.

In the case of `O=C(O)c1cnn(-c2cccc(-c3cccc(C(=O)N4CCCC5(CCCC5)C4)c3F)c2)c1C1CC1`, the concentration for a half-maximal effect (EC50) was 3700 nM.

As to `CCC[C@@H]1CCCCN1C(=O)c1cccc(-c2cccc(-n3ncc(C(=O)O)c3[C@@H]3C[C@H]3c3cn(C)nn3)c2)c1`, the EC50 is > 5000 nM.

In the case of `CCCC1CCCCN1C(=O)c1cccc(-c2cccc(-n3ncc(C(=O)O)c3C3CC3c3ccccn3)c2)c1` (stereo unspecified), the EC50 amounted to 3800 nM.

For the compound `CCCC1COCCN1C(=O)c1cccc(-c2cccc(-n3ncc(C(=O)O)c3C3CC3)c2)c1F` (stereo unspecified), the EC50 worked out at 2500 nM.

In the case of `CCCC1CCCCN1C(=O)c1cccc(-c2cccc(-n3ncc(C(=O)O)c3C3CC3c3cccnn3)c2)c1` (stereo unspecified), the EC50 is 2800 nM.

On to `O=C(O)c1cnn(-c2cccc([C@@H]3CCC[C@H](C(=O)N4CCCCC4)C3)c2)c1C1CC1`, for which the EC50 came to 2700 nM.

On to `CCCC[C@@H]1CCCN1C(=O)[C@H]1CCC[C@@H](c2cccc(-n3ncc(C(=O)O)c3C3CC3)c2)C1`, for which the EC50 came to 4300 nM.

In the case of `CN(C)C(=O)[C@H]1CCC[C@@H](c2cccc(-n3ncc(C(=O)O)c3C3CC3)c2)C1`, the half-maximal effective concentration (EC50) amounted to 1700 nM.

`O=C(O)c1cnn(-c2cccc(-c3cccc(C(=O)N4CCCCC4)c3F)c2)c1C1CC1`: the EC50 came to 2300 nM.

The target in the next experiment is Kelch-like ECH-associated protein 1 (Homo sapiens, UniProt Q14145).
Sequence of Kelch-like ECH-associated protein 1 (Q14145 whole entry): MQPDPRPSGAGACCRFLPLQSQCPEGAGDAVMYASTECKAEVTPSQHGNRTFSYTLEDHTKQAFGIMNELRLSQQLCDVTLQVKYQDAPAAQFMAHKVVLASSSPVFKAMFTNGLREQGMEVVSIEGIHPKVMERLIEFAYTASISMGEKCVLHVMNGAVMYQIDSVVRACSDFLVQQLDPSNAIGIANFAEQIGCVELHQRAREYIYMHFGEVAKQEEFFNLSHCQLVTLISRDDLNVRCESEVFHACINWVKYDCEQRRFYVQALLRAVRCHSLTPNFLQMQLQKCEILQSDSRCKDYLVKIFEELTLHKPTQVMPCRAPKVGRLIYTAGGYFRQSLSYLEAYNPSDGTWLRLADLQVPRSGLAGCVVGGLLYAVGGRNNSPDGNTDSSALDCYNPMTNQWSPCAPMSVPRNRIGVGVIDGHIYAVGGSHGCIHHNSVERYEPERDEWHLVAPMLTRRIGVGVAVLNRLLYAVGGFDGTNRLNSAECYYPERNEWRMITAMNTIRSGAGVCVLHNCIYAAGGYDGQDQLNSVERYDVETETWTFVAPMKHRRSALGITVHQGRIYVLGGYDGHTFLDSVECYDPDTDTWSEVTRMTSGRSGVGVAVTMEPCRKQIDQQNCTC
Compound `CCCC1CCCCN1C(=O)c1cccc(-c2cccc(-n3ncc(C(=O)O)c3C3CC3c3ccccn3)c2)c1` (stereo unspecified) displayed a 50% inhibitory concentration (IC50) of 42 nM.
